Each block holds one compound with its values, some of them ahead of it.
How the values were obtained:
[1] = system: RAW264.7; experiment: Anti-inflammatory activity against mouse RAW264.7 cells assessed as inhibition of LPS-induced TNF-alpha production at 10 uM pre-incubated with LPS-stimulation for 2 hrs followed by compound addition and measured after 22 hrs by ELISA analysis relative to control; assay type: functional; set-up: scale not given: the % may be the effect or the level left; settings: time 24 hrs
[2] = target: T1, Prostaglandin G/H synthase 2 (Homo sapiens, UniProt P35354); experiment: Inhibition of COX-2 (unknown origin) by Enzyme immune assay
T1 sequence (P35354 whole entry): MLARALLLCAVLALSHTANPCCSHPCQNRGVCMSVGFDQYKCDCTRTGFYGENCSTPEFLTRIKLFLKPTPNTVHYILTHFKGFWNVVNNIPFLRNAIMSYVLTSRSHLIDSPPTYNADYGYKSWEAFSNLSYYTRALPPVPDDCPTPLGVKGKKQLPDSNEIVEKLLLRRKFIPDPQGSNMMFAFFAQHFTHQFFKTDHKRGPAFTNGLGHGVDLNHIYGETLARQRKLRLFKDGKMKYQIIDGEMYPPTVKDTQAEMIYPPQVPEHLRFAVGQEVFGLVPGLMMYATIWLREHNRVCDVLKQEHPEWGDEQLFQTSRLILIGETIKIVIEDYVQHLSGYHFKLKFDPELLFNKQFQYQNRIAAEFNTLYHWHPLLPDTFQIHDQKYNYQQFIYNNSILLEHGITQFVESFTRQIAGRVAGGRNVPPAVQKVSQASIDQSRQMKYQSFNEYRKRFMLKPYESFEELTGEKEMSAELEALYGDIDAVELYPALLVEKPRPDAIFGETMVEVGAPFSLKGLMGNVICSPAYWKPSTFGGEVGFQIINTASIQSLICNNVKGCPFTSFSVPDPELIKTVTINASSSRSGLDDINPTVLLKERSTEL

[3] = system: Rattus norvegicus; experiment: Anti-inflammatory activity against carrageenan-induced paw edema in Wistar albino rat assessed as inhibition of paw edema; assay type: functional
[4] = system: Rattus norvegicus; experiment: Anti-inflammatory activity against carrageenan-induced paw edema in Wistar albino rat assessed as inhibition of paw edema at 50 mg/kg, sc administered for 14 days relative to control; assay type: functional; set-up: scale not given: the % may be the effect or the level left; settings: time 14 day
[5] = Inhibition of human recombinant sPLA2-V
[6] = system: RAW264.7; experiment: Anti-inflammatory activity against mouse RAW264.7 cells assessed as inhibition of LPS-induced IL-6 production at 10 uM pre-incubated with LPS-stimulation for 2 hrs followed by compound addition and measured after 22 hrs by ELISA analysis relative to control; assay type: functional; set-up: scale not given: the % may be the effect or the level left; settings: time 24 hrs
[7] = target: Carbonic anhydrase 2 (Homo sapiens, UniProt P00918); experiment: Inhibition of recombinant human carbonic anhydrase II incubated for 30 mins by spectrophotometric analysis
[8] = target: T2, Prostaglandin G/H synthase 1 (Ovis aries, UniProt P05979); experiment: Inhibition of ovine COX-1
T2 sequence (P05979 whole entry): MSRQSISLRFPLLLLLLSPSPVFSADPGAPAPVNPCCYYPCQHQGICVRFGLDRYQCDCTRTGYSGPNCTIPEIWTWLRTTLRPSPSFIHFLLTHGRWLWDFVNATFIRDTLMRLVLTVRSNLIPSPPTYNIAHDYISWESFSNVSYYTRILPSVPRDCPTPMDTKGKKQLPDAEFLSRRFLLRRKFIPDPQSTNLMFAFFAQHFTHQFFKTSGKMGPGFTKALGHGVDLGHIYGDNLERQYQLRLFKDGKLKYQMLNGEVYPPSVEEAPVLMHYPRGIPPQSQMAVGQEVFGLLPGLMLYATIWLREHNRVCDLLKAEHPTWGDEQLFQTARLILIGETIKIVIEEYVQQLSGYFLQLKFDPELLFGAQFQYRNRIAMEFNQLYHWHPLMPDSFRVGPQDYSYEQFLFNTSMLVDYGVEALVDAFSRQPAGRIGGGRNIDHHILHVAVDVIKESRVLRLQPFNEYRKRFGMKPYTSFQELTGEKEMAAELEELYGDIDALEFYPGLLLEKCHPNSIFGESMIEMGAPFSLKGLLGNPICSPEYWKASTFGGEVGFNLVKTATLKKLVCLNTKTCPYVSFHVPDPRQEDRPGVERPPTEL

[9] = target: T1, Prostaglandin G/H synthase 2; experiment: Inhibition of human COX-2
[10] = Inhibition of soybean lipoxygenase; set-up: species or system Glycine max
[11] = target: T3, Polyunsaturated fatty acid 5-lipoxygenase (Homo sapiens, UniProt P09917); experiment: Inhibition of 5-LOX in human PMNL cells; assay type: cell-based
T3 sequence (P09917 whole entry): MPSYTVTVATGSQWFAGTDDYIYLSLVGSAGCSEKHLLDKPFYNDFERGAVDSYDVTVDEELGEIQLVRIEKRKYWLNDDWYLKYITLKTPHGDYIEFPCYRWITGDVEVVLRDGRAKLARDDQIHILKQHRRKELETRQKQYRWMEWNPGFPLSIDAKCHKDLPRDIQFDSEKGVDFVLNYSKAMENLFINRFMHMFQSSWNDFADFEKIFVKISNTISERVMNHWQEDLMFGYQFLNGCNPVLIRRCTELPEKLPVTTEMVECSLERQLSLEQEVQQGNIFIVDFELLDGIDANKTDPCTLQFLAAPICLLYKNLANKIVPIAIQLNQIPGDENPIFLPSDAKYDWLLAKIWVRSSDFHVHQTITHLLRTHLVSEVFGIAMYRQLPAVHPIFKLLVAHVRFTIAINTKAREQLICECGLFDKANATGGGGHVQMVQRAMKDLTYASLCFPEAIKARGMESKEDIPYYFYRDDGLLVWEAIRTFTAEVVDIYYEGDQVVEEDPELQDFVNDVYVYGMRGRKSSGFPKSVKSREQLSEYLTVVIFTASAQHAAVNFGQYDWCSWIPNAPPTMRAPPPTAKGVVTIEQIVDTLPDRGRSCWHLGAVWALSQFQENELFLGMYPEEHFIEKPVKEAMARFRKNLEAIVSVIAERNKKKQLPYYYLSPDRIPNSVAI

[12] = Selectivity ratio of IC50 for ovine COX-1 to IC50 for human COX-2

IC50 [2]: 1.11 µM
IC50 [5]: 1 µM
SMILES: COc1ccnc(Nc2nn3c(SC)c(C#N)c(O)nc3c2C#N)c1
Activity [1]: 89%
ED50 [3]: 35 mg/kg
Activity [4]: 46%
Activity [6]: 80%

IC50 [7]: 0.11 µM
SMILES: NS(=O)(=O)c1ccc(NCCC(=O)N/N=C/c2ccc(-c3ccc(Br)s3)cc2)cc1

IC50 [8]: 9.85 µM
IC50 [9]: 1 µM
IC50 [10]: 1.02 µM
IC50 [11]: 0.32 µM
Ratio IC50 [12]: 9.85
SMILES: O=C1c2ccccc2C(=O)N1c1nc2cc([N+](=O)[O-])ccc2n1Cc1cccc(-c2ccccc2)c1

Reference: ChEMBL document CHEMBL5543066, “Dual COX-2/15-LOX inhibitors: A new avenue in the prevention of cancer” (Eur J Med Chem, 2023)
